Data: paper PMC9267128, “New 2-[(4-Amino-6-N-substituted-1,3,5-triazin-2-yl)methylthio]-N-(imidazolidin-2-ylidene)-4-chloro-5-methylbenzenesulfonamide Derivatives, Design, Synthesis and Anticancer Evaluation” (International Journal of Molecular Sciences, 2022)

Tests used:
MCF-7 (breast cancer) = assay: MTT cell viability assay, MCF-7; type: cell-based, human; conditions: for IC50: Homo sapiens, MCF7, 72 h, MTT assay, 72 h of incubation
Protocol: (§1) Compounds 20–162 were evaluated in vitro for their effects on the viability of three cancer cell lines: HCT-116 (colon cancer), MCF-7 (breast cancer) and HeLa (cervical cancer), as well as the non-cancerous keratinocyte cell line (HaCaT). […] Analysis was performed using an MTT assay after 72 h of incubation.
(§2) All chemicals, if not stated otherwise, were obtained from Sigma–Aldrich (St. Louis, MO, USA). The HCT-116 cell line was purchased from ATCC (ATCC-No: CCL-247), while the MCF-7, HeLa and HaCaT cell lines were purchased from Cell Lines Services (Eppelheim, Germany). Cells were cultured in Dulbecco’s modified Eagle’s medium (DMEM) supplemented with 10% fetal bovine serum, 2 mM glutamine, 100 units/mL penicillin and 100 µg/mL streptomycin. Cultures were maintained in a humidified atmosphere with 5% carbon dioxide at 37 °C in an incubator (Heraceus, HeraCell).
(§3) Cell viability was examined using the MTT [3-(4,5-dimethylthiazol-2-yl)-2,5-diphenyltetrazolium bromide] assay. Cells were seeded in 96-well plates at a density of 3 × 10^3 cells/well and treated for 72 h with the tested compounds in the concentration range of 1–100 µM. Then, MTT (0.5 mg/mL) was added to the medium and cells were further incubated for 2 h at 37 °C. In the next stage, cells were lysed with DMSO and the absorbance of the formazan solution was measured at 550 nm with a plate reader (1420 multilabel counter, Victor, Jügesheim, Germany). The experiment was performed in triplicate. Values are expressed as the mean ± SD of at least three independent experiments. Cisplatin was used as a positive control.

[1] = tested on: HaCaT (human keratinocyte cell line); assay: MTT cell viability assay, non-cancerous HaCaT; type: cell-based; conditions: Homo sapiens, HaCaT, 72 h, 72 h of incubation, non-cancerous keratinocytes
Protocol: as §1, §2, §3

HeLa (cervical cancer) = assay: MTT cell viability assay, HeLa; type: cell-based, human; conditions: for IC50: Homo sapiens, HeLa, MTT assay, 72 h of incubation
Protocol: (§4) Analysis was performed using an MTT assay after 72 h of incubation.
as §2
as §3, with “experiments.” for “experiments. Cisplatin was used as a positive control.”

HCT-116 (colon cancer) = assay: MTT cell viability assay, HCT-116; type: cell-based, human; conditions: for IC50: MTT assay, 72 h of incubation
Protocol: as §4, §2
as §3, with “experiments.” for “experiments. Cisplatin was used as a positive control.”

SMILES | IC50 (MCF-7 (breast cancer)) [µM] | IC50 [1] [µM] | IC50 (HeLa (cervical cancer)) [µM] | IC50 (HCT-116 (colon cancer); Homo sapiens, HCT-116, 72 h) [µM] | Selectivity Index (SI) MCF-7 (MCF-7 (breast cancer); IC50 value toward HaCaT cells/IC50 value toward MCF-7) | Selectivity Index (SI) HeLa (HeLa (cervical cancer); IC50 value toward HaCaT cells/IC50 value toward HeLa) | Selectivity Index (SI) HCT-116 (HCT-116 (colon cancer); IC50 value toward HaCaT cells/IC50 value toward HCT-116) | IC50 (HCT-116 (colon cancer)) [µM]
Cc1cc(S(=O)(=O)N=C2NCCN2)c(SCc2nc(N)nc(Nc3ccccc3)n2)cc1Cl [Compound 25] | 46 ± 2 | 54 ± 2 | 46 ± 2 | 45 ± 2 |  |  |  | 
Cc1cc(S(=O)(=O)N=C2NCCN2)c(SCc2nc(N)nc(N3CCN(c4ccc(F)c(Cl)c4)CC3)n2)cc1Cl [Compound 39] | 17 ± 1 | 37 ± 2 | 18 ± 1 | 15 ± 1 |  |  |  | 
Cc1cc(S(=O)(=O)N=C2NCCN2Cc2ccc(C(F)(F)F)cc2)c(SCc2nc(N)nc(Nc3ccc(F)cc3)n2)cc1Cl [Compound 123] | 21 ± 0.6 | 30 ± 1 | 18 ± 1 | 12 ± 0.5 |  |  |  | 
Cc1cc(S(=O)(=O)N=C2NCCN2Cc2cc(C(F)(F)F)cc(C(F)(F)F)c2)c(SCc2nc(N)nc(N3CCN(c4ccc(F)cc4)CC3)n2)cc1Cl [Compound 151] | 6 ± 0.1 | 28 ± 1 | 15 ± 1 | 6 ± 0.1 |  |  |  | 
Cc1cc(S(=O)(=O)N=C2NCCN2Cc2cccc3ccccc23)c(SCc2nc(N)nc(N3CCN(c4ccc(C(F)(F)F)cc4)CC3)n2)cc1Cl [Compound 78] | 11 ± 0.5 | 280 ± 14 | 130 ± 8 | 19.5 ± 0.6 |  |  |  | 
Cc1cc(S(=O)(=O)N=C2NCCN2Cc2ccc(Br)cc2)c(SCc2nc(N)nc(N3CCCc4ccccc43)n2)cc1Cl [Compound 103] | 6.5 ± 0.3 | 28 ± 1 | 16 ± 0.5 | 7 ± 0.1 |  |  |  | 
Cc1cc(S(=O)(=O)N=C2NCCN2Cc2ccc(C(F)(F)F)cc2)c(SCc2nc(N)nc(N3CCCc4ccccc43)n2)cc1Cl [Compound 121] | 14 ± 1 | 24 ± 1 | 13 ± 1 | 6 ± 0.1 |  |  |  | 
Cc1cc(S(=O)(=O)N=C2NCCN2Cc2ccc(F)cc2)c(SCc2nc(N)nc(N3CCN(c4ccc(F)cc4)CC3)n2)cc1Cl [Compound 93] | 7 ± 0.5 | 18 ± 1 | 8 ± 0.4 | 7 ± 0.3 |  |  |  | 
COc1ccc(N2CCN(c3nc(N)nc(CSc4cc(Cl)c(C)cc4S(=O)(=O)N=C4NCCN4Cc4ccc(F)cc4)n3)CC2)cc1 [Compound 100] | 7 ± 0.1 | 18 ± 1 | 8 ± 0.5 | 8 ± 0.2 |  |  |  | 
Cc1cc(S(=O)(=O)N=C2NCCN2Cc2ccccc2)c(SCc2nc(N)nc(N3CCN(c4cccc(Cl)c4)CC3)n2)cc1Cl [Compound 63] | 9 ± 0.5 | 24 ± 1 | 12 ± 0.5 | 7 ± 0.1 |  |  |  | 
Cc1cc(S(=O)(=O)N=C2NCCN2Cc2ccccc2)c(SCc2nc(N)nc(N3CCN(c4ccc(Cl)c(Cl)c4)CC3)n2)cc1Cl [Compound 64] | 14 ± 0.5 | 28 ± 1 | 15 ± 1 | 11 ± 0.4 |  |  |  | 
Cc1cc(S(=O)(=O)N=C2NCCN2)c(SCc2nc(N)nc(N3CCN(c4ccc(Cl)c(Cl)c4)CC3)n2)cc1Cl [Compound 38] | 28 ± 1 | 35 ± 1 | 19 ± 1 | 15 ± 0.5 |  |  |  | 
Cc1cc(S(=O)(=O)N=C2NCCN2)c(SCc2nc(N)nc(N3CCN(Cc4ccccc4)CC3)n2)cc1Cl [Compound 42] | 31 ± 2 | 61 ± 4 | 30 ± 1.5 | 31 ± 1 |  |  |  | 
Cc1cc(S(=O)(=O)N=C2NCCN2)c(SCc2nc(N)nc(N3CCN(c4ccccc4F)CC3)n2)cc1Cl [Compound 33] | 26 ± 1 | 41 ± 2 | 25 ± 1 | 19 ± 0.5 |  |  |  | 
Cc1cc(S(=O)(=O)N=C2NCCN2Cc2ccccc2)c(SCc2nc(N)nc(NCc3ccccc3)n2)cc1Cl [Compound 53] | 11 ± 0.5 | 81 ± 4 | 85 ± 2 | 10 ± 0.5 |  |  |  | 
Cc1cc(S(=O)(=O)N=C2NCCN2Cc2ccc(C(F)(F)F)cc2)c(SCc2nc(N)nc(N3CCN(C(c4ccccc4)c4ccccc4)CC3)n2)cc1Cl [Compound 141] | 9.5 ± 0.5 | 180 ± 9 | 45 ± 2 | 7.5 ± 0.2 |  |  |  | 
Cc1cc(S(=O)(=O)N=C2NCCN2Cc2cccc(C(F)(F)F)c2)c(SCc2nc(N)nc(N3CCCc4ccccc43)n2)cc1Cl [Compound 112] | 17 ± 1 | 29 ± 1 | 15.5 ± 1 | 15 ± 0.3 |  |  |  | 

SMILES | IC50 (MCF-7 (breast cancer)) [µM] | IC50 [1] [µM] | IC50 (HeLa (cervical cancer)) [µM] | IC50 (HCT-116 (colon cancer); Homo sapiens, HCT-116, 72 h) [µM] | Selectivity Index (SI) MCF-7 (MCF-7 (breast cancer); IC50 value toward HaCaT cells/IC50 value toward MCF-7) | Selectivity Index (SI) HeLa (HeLa (cervical cancer); IC50 value toward HaCaT cells/IC50 value toward HeLa) | Selectivity Index (SI) HCT-116 (HCT-116 (colon cancer); IC50 value toward HaCaT cells/IC50 value toward HCT-116) | IC50 (HCT-116 (colon cancer)) [µM]
Cc1cc(S(=O)(=O)N=C2NCCN2Cc2ccccc2)c(SCc2nc(N)nc(N3CCN(c4ccccc4)CC3)n2)cc1Cl [Compound 57] | 8 ± 0.2 | 48 ± 2 | 102 ± 2 | 8 ± 0.1 |  |  |  | 
Cc1cc(S(=O)(=O)N=C2NCCN2Cc2cc(C(F)(F)F)cc(C(F)(F)F)c2)c(SCc2nc(N)nc(N(C)c3ccc(Cl)cc3)n2)cc1Cl [Compound 149] | 11 ± 0.5 | 33 ± 1 | 18 ± 1 | 11.5 ± 0.6 |  |  |  | 
Cc1cc(S(=O)(=O)N=C2NCCN2Cc2ccc(Br)cc2)c(SCc2nc(N)nc(N3CCN(c4ccc(Cl)c(Cl)c4)CC3)n2)cc1Cl [Compound 110] | 23 ± 1 | 123 ± 6 | 85 ± 5 | 20 ± 0.6 |  |  |  | 
Cc1cc(S(=O)(=O)N=C2NCCN2Cc2ccccc2)c(SCc2nc(N)nc(N3CC=C(c4ccc(F)cc4)CC3)n2)cc1Cl [Compound 73] | 7.5 ± 0.3 | 29 ± 1 | 14 ± 0.3 | < 6 | 3.8 | 2.0 | 5.5 | 5.2 ± 0.2
Cc1cc(S(=O)(=O)N=C2NCCN2)c(SCc2nc(N)nc(Nc3ccc(F)cc3)n2)cc1Cl [Compound 26] | 33 ± 1 | 45 ± 2 | 34 ± 1 | 33 ± 2 |  |  |  | 
Cc1cc(S(=O)(=O)N=C2NCCN2Cc2ccc(C(F)(F)F)cc2)c(SCc2nc(N)nc(Nc3cccc(Cl)c3)n2)cc1Cl [Compound 124] | 10 ± 0.5 | 31 ± 1 | 15 ± 0.2 | 9.5 ± 0.1 |  |  |  | 
Cc1cc(S(=O)(=O)N=C2NCCN2Cc2ccc(C(F)(F)F)cc2)c(SCc2nc(N)nc(N3CCC(Cc4ccccc4)CC3)n2)cc1Cl [Compound 142] | 6.5 ± 0.3 | 29 ± 1 | 14 ± 0.2 | 4.6 ± 0.1 |  |  |  | 
Cc1cc(S(=O)(=O)N=C2NCCN2Cc2ccccc2)c(SCc2nc(N)nc(N(C)C)n2)cc1Cl [Compound 45] | 22 ± 0.2 | 43 ± 2 | 34 ± 1 | 19 ± 0.4 |  |  |  | 
Cc1cc(S(=O)(=O)N=C2NCCN2Cc2ccccc2)c(SCc2nc(N)nc(N3CCC(Cc4ccccc4)CC3)n2)cc1Cl [Compound 72] | 9 ± 0.5 | 28 ± 1 | 17 ± 0.5 | 6.5 ± 0.1 |  |  |  | 
Cc1cc(S(=O)(=O)N=C2NCCN2Cc2ccc(C(F)(F)F)cc2)c(SCc2nc(N)nc(N3CCN(c4ccccc4)CC3)n2)cc1Cl [Compound 131] | 15 ± 0.5 | 25 ± 1 | 13 ± 0.5 | 7 ± 0.2 |  |  |  | 
Cc1cc(S(=O)(=O)N=C2NCCN2Cc2ccccc2)c(SCc2nc(N)nc(N3CCN(Cc4ccccc4)CC3)n2)cc1Cl [Compound 68] | 16 ± 0.5 | 32 ± 2 | 14 ± 0.5 | 16 ± 0.5 |  |  |  | 
Cc1cc(S(=O)(=O)N=C2NCCN2)c(SCc2nc(N)nc(N3CCN(c4ccc(C(F)(F)F)cc4)CC3)n2)cc1Cl [Compound 34] | 12 ± 0.5 | 41 ± 1 | 24 ± 2 | 18 ± 1 |  |  |  | 
Cc1cc(S(=O)(=O)N=C2NCCN2Cc2ccc(F)cc2)c(SCc2nc(N)nc(N3CCN(c4ccc(F)c(Cl)c4)CC3)n2)cc1Cl [Compound 99] | 17 ± 1 | 30 ± 1 | 18 ± 0.5 | 17 ± 1 |  |  |  | 
Cc1cc(S(=O)(=O)N=C2NCCN2Cc2ccccc2)c(SCc2nc(N)nc(N3CCN(C)CC3)n2)cc1Cl [Compound 56] | 54 ± 1 | 58 ± 2 | 37 ± 1 | 22 ± 1 |  |  |  | 
COc1ccc(N2CCN(c3nc(N)nc(CSc4cc(Cl)c(C)cc4S(=O)(=O)N=C4NCCN4Cc4cccc(C(F)(F)F)c4)n3)CC2)cc1 [Compound 116] | 8.5 ± 0.3 | 31 ± 2 | 17 ± 1 | 6 ± 0.2 |  |  |  | 
Cc1cc(S(=O)(=O)N=C2NCCN2)c(SCc2nc(N)nc(N3CCC(Cc4ccccc4)CC3)n2)cc1Cl [Compound 43] | 22 ± 0.5 | 43 ± 2 | 19 ± 0.5 | 17 ± 1 |  |  |  | 
